Test results as given in the NIST ThermoML archive (doi:10.1016/j.jct.2012.01.011).
Numbers after ± are expanded uncertainties.

Assay: molar heat capacity at constant pressure
Conditions: Liquid, Flow calorimetry

molar heat capacity at constant pressure (293.15 K, 100 kPa) [J/K/mol]	molar heat capacity at constant pressure (293.15 K, 10000 kPa) [J/K/mol]	molar heat capacity at constant pressure (293.15 K, 20000 kPa) [J/K/mol]	molar heat capacity at constant pressure (293.15 K, 30000 kPa) [J/K/mol]	molar heat capacity at constant pressure (313.15 K, 100 kPa) [J/K/mol]	molar heat capacity at constant pressure (313.15 K, 10000 kPa) [J/K/mol]	molar heat capacity at constant pressure (313.15 K, 20000 kPa) [J/K/mol]	molar heat capacity at constant pressure (313.15 K, 30000 kPa) [J/K/mol]	molar heat capacity at constant pressure (333.15 K, 100 kPa) [J/K/mol]	molar heat capacity at constant pressure (333.15 K, 10000 kPa) [J/K/mol]	molar heat capacity at constant pressure (333.15 K, 20000 kPa) [J/K/mol]	molar heat capacity at constant pressure (333.15 K, 30000 kPa) [J/K/mol]	molar heat capacity at constant pressure (353.15 K, 100 kPa) [J/K/mol]	molar heat capacity at constant pressure (353.15 K, 10000 kPa) [J/K/mol]	molar heat capacity at constant pressure (353.15 K, 20000 kPa) [J/K/mol]	molar heat capacity at constant pressure (353.15 K, 30000 kPa) [J/K/mol]	SMILES
879 ± 8.9	873.5 ± 8.8	868.5 ± 8.8	865.5 ± 8.7	904.4 ± 9.1	898.9 ± 9.1	896.4 ± 9.1	893.4 ± 9	943.3 ± 9.5	940.8 ± 9.5	936.1 ± 9.5	929.3 ± 9.4	978.8 ± 9.9	973.7 ± 9.8	963.2 ± 9.7	959.8 ± 9.7	CC(C)CCCC(C)CCCC(C)CCCCC(C)CCCC(C)CCCC(C)C (stereo not drawn) [2,6,10,15,19,23-hexamethyltetracosane]
810.3 ± 8.2	808.5 ± 8.2	805.6 ± 8.1	803 ± 8.1	846.5 ± 8.6	843.5 ± 8.5	840.1 ± 8.5	838.4 ± 8.5	878.1 ± 8.9	875.5 ± 8.8	873.4 ± 8.8	871.7 ± 8.8	910.9 ± 9.2	909.7 ± 9.2	907.1 ± 9.2	906.3 ± 9.2	CCCCC(CC)COC(=O)CCCCCCCCC(=O)OCC(CC)CCCC (stereo not drawn) [bis(2-ethylhexyl) decanedioate]

SMILES	molar heat capacity at constant pressure (293.15 K, 100 kPa) [J/K/mol]	molar heat capacity at constant pressure (293.15 K, 10000 kPa) [J/K/mol]	molar heat capacity at constant pressure (293.15 K, 20000 kPa) [J/K/mol]	molar heat capacity at constant pressure (293.15 K, 30000 kPa) [J/K/mol]	molar heat capacity at constant pressure (313.15 K, 100 kPa) [J/K/mol]	molar heat capacity at constant pressure (313.15 K, 10000 kPa) [J/K/mol]	molar heat capacity at constant pressure (313.15 K, 20000 kPa) [J/K/mol]	molar heat capacity at constant pressure (313.15 K, 30000 kPa) [J/K/mol]	molar heat capacity at constant pressure (333.15 K, 100 kPa) [J/K/mol]	molar heat capacity at constant pressure (333.15 K, 10000 kPa) [J/K/mol]	molar heat capacity at constant pressure (333.15 K, 20000 kPa) [J/K/mol]	molar heat capacity at constant pressure (333.15 K, 30000 kPa) [J/K/mol]	molar heat capacity at constant pressure (353.15 K, 100 kPa) [J/K/mol]	molar heat capacity at constant pressure (353.15 K, 10000 kPa) [J/K/mol]	molar heat capacity at constant pressure (353.15 K, 20000 kPa) [J/K/mol]	molar heat capacity at constant pressure (353.15 K, 30000 kPa) [J/K/mol]
CCCCC(CC)COC(=O)c1ccccc1C(=O)OCC(CC)CCCC (stereo not drawn) [bis(2-ethylhexyl) 1,2-benzenedicarboxylate]	703 ± 7.1	701.5 ± 7.1	699.9 ± 7.1	699.6 ± 7.1	726.9 ± 7.3	724.9 ± 7.3	723 ± 7.3	722 ± 7.3	751.3 ± 7.6	750 ± 7.6	747.5 ± 7.6	746 ± 7.5	774.5 ± 7.8	770.5 ± 7.8	767.9 ± 7.8	763.4 ± 7.7
